PMC10461227, “Discovery of AD258 as a Sigma Receptor Ligand with Potent Antiallodynic Activity” (Journal of Medicinal Chemistry, 2023)
“And” between values parts separate entries of the source, which are not always exact repeats. Identical values can stand only once. Counter-ions that a name gives are not always drawn.

Experiments:
[1] = molecular target: T1, S2R (Rattus norvegicus, UniProt Q5U3Y7); experiment: S2R radioligand binding assay ([3H]DTG with (+)-pentazocine mask, rat liver homogenates)
T1 construct: liver homogenates from male Sprague Dawley rats; from tissue; host or cells: rat liver homogenate (male Sprague Dawley)
T1 sequence (Q5U3Y7 1-176): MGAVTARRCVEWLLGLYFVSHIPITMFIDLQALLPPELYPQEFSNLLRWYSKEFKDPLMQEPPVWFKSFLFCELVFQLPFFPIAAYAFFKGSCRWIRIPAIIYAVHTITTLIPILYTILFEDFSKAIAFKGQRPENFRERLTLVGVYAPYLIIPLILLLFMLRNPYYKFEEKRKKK

[2] = molecular target: T2, S1R (Rattus norvegicus, UniProt Q9R0C9); experiment: S1R radioligand binding assay ([3H]-(+)-pentazocine, rat liver homogenates); conditions: mean ± SD of at least two experiments in duplicate
T2 construct: liver homogenates from male Sprague Dawley rats; from tissue; host or cells: rat liver homogenate (male Sprague Dawley)
T2 sequence (Q9R0C9 whole entry): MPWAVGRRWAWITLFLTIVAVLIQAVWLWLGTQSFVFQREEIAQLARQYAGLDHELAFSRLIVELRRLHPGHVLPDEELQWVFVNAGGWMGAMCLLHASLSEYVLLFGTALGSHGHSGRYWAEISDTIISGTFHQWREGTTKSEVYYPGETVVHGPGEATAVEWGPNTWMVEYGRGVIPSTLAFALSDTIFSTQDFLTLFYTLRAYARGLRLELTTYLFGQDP

[3] = tested on: capsaicin-induced mechanical hypersensitivity (allodynia) in mice; experiment: Capsaicin-induced mechanical hypersensitivity (allodynia) in mice; format: in vivo; conditions: for response latency to mechanical stimulation: 40 mg/kg s.c., non-sensitized 44.19 ± 2.59 s, capsaicin + solvent 13.51 ± 1.93 s, mean ± SEM; for antiallodynic effect on capsaicin-induced allodynia (in words): 30 min before capsaicin; for dose of maximum antiallodynic effect: capsaicin-induced mechanical hypersensitivity
Experimental: We tested the effect of several of our compounds in capsaicin-induced mechanical hypersensitivity (allodynia) in mice (Figure 5). The increase in pain sensitivity in the area surrounding capsaicin injection results from central sensitization, and this process plays a pivotal role in chronic pain development and maintenance.[29]
Experiments were performed in female WT-CD1 mice (Charles River, Barcelona, Spain) weighing 25–30 g. […] The behavioral test was conducted during the light phase (from 9:00 to 15:00 h) and randomly throughout the estrous cycle.
Drug solutions were prepared immediately before the start of the experiments and injected s.c. in a volume of 5 mL/kg into the interscapular area. […] To test for the effects of PRE-084 on the antiallodynia induced by the other drugs, it was administered 5 min before the latter. Capsaicin was dissolved in 1% DMSO in physiological sterile saline to a concentration of 0.05 μg/μL. […] Control animals were injected with the same volume of the vehicle of capsaicin.
Animals were placed for 2 h in individual black-walled test compartments, which were situated on an elevated mesh-bottom platform with a 0.5 cm^2 grid to provide access to the ventral surface of the hind paws. […] Briefly, a nonflexible filament (0.5 mm diameter) was electronically driven into the ventral side of the right hind paw at least 5 mm away from the site of the injection toward the fingers. The intensity of the stimulation was set at 0.5g force.[30] When a paw withdrawal response occurred, the stimulus was automatically terminated, and the response latency was recorded. The filament was applied three times, separated by intervals of 0.5 min. The mean value of the three trials was considered the withdrawal latency time of the animal. A cutoff time of 50 s was used in each trial.

[4] = tested on: human corneal epithelial cells (HCE); experiment: LDH cytotoxicity assay in HCE cells; format: cell-based; conditions: 100 μM, 20 h incubation
Experimental: The permeability of cellular membranes following the exposures was determined by measuring the amount of released LDH (lactate dehydrogenase) enzyme from HCE cells. The commercial CytoTox 96 kit (Promega, Fitchburg, WI, USA) was used according to the manufacturer’s instructions. To measure maximal LDH release, 10 μL of 10× lysis solution was added to control wells 45 min before adding the CytoTox 96 reagent. To measure the amount of released LDH, 50 μL of each well was transferred to a fresh 96-well plate and 50 μL of CytoTox 96 reagent was added followed by a 30 min incubation period. Finally, 50 μL of stop solution was added and absorbance was recorded at 490 nm (Synergy H1 Hybrid Reader, BioTek, Winooski, VT, USA). Absorbance values were corrected by background values, and the percentage of LDH release was calculated using the following formula: 100 × experimental LDH release optical density (OD)/maximum LDH release OD.

[5] = tested on: human corneal epithelial cells (HCE); experiment: MTT cell viability assay in HCE cells; conditions: 20 h incubation; for HCE cells cell viability reduction (MTT): 100 μM
[6] = Chemical stability in phosphate buffer pH 7.4; format: physicochemical; conditions: phosphate buffer pH 7.4, 37 °C; read-out: chemical stability T1/2
[7] = molecular target: T2, S1R; experiment: S1R functional assay (radioligand binding with/without phenytoin, rat liver)
[8] = tested on: mice; experiment: Rotarod test (motor coordination); format: in vivo; conditions: 9d 1.25 mg/kg s.c., pregabalin 60 mg/kg s.c.; 45-240 min after administration
Experimental: The rotarod test is the most standard test to assess motor function and coordination in rodents. It consists of a rotating rod where the animal is placed, and the latency to fall is measured. Drugs that negatively affect motor coordination decrease the latency to fall.[2]
Motor coordination was assessed with an accelerating rotarod (Cibertec, Madrid, Spain), as previously described.[34] Briefly, mice were required to walk against the motion of an elevated rotating drum at increasing speed (4–80 rpm over 5 min), and the latency to fall was recorded with a cut-off time of 300 s. Mice were given three training sessions 24 h before drug testing. On the day of the test, rotarod latencies were measured immediately before the drug or vehicle (saline 5% DMSO) was administered (time 0) and several times (45, 90, 150, and 240 min) after the s.c. drug administration. As a comparison drug, we used pregabalin (60 mg/kg, s.c.), which has been reported to impair rotarod performance.[34]

[9] = Water solubility (UHPLC-PDA); format: physicochemical; conditions: free base, ultrapure water, rt
[10] = Metabolic stability in human liver microsomes; format: in vitro ADME
Experimental: (§1) Moreover, in vitro metabolic studies were performed using mouse and human liver microsomes. Following incubation at 0.1 μM with the liver microsomes for 1 h, reaction samples were analyzed by LC–MS/MS at different time points (0, 15, 30, 45, 60 min).
(§2) In vitro metabolic stability studies were performed by Eurofins Cerep Quality Control Unit (France) using mouse and human liver microsomes fractions in accordance with their validation Standard Operating Procedure.

[11] = molecular target: hERG (Homo sapiens, UniProt Q12809); experiment: hERG activity (Qube APC electrophysiology, CHO-K1 cells expressing human ERG); format: cell-based; conditions: CHO-K1 cells that express human ERG, six concentrations 10^-10 to 10^-5 M
Chain of hERG (Q12809 whole entry): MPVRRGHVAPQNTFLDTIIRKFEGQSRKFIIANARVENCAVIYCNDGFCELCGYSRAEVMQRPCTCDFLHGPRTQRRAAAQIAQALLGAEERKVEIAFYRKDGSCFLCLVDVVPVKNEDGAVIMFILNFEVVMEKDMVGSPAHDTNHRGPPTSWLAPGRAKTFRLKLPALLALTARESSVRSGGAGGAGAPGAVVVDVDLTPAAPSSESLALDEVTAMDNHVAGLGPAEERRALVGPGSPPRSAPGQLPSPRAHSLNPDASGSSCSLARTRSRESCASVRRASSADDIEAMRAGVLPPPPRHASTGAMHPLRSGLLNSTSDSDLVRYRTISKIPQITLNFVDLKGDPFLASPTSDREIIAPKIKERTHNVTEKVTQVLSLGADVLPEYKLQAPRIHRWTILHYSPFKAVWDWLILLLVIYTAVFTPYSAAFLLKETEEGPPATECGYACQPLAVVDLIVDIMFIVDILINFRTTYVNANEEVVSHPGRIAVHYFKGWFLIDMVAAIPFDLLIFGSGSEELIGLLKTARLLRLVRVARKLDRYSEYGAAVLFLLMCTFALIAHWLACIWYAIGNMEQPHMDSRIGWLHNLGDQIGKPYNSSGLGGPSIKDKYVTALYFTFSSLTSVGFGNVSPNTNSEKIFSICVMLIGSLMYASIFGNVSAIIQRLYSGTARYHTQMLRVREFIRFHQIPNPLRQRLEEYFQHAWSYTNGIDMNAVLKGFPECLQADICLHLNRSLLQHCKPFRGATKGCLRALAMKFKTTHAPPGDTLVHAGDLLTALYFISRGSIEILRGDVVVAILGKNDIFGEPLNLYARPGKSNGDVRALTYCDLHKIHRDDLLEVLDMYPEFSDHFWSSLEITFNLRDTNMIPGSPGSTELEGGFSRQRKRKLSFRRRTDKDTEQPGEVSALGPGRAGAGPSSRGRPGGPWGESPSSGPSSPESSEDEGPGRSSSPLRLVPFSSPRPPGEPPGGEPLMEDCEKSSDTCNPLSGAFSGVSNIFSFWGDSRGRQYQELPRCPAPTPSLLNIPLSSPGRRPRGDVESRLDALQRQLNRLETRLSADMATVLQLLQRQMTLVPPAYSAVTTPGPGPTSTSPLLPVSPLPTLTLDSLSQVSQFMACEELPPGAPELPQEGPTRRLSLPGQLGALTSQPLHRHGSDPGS

[12] = Metabolic stability in mouse liver microsomes; format: in vitro ADME
Experimental: as §1, §2

[13] = molecular target: T3, human serotonin 5-HT2A receptor (Homo sapiens, UniProt P28223); experiment: 5-HT2A receptor binding ([3H]Ketanserin)
T3 construct: host or cells: CHO-K1 cells
T3 sequence (P28223 whole entry): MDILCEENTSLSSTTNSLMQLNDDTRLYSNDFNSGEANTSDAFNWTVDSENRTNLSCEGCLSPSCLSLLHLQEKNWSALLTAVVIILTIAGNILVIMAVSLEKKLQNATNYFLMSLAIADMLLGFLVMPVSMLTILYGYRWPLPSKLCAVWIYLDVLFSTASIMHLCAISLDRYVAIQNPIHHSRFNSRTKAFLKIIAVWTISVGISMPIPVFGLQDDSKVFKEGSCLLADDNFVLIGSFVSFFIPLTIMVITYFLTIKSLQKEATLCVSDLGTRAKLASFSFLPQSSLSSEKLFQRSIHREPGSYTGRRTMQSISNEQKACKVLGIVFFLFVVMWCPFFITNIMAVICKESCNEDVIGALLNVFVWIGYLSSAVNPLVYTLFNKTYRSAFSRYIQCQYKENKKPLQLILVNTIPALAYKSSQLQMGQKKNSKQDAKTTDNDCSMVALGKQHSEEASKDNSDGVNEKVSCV

[14] = Human plasma stability; format: in vitro ADME; conditions: pH 7.4, 37 °C, read-out: plasma stability T1/2
[15] = molecular target: T4, human serotonin transporter (Homo sapiens, UniProt P31645); experiment: SERT binding ([3H]Paroxetine)
T4 construct: host or cells: HEK-293 cells
T4 sequence (P31645 whole entry): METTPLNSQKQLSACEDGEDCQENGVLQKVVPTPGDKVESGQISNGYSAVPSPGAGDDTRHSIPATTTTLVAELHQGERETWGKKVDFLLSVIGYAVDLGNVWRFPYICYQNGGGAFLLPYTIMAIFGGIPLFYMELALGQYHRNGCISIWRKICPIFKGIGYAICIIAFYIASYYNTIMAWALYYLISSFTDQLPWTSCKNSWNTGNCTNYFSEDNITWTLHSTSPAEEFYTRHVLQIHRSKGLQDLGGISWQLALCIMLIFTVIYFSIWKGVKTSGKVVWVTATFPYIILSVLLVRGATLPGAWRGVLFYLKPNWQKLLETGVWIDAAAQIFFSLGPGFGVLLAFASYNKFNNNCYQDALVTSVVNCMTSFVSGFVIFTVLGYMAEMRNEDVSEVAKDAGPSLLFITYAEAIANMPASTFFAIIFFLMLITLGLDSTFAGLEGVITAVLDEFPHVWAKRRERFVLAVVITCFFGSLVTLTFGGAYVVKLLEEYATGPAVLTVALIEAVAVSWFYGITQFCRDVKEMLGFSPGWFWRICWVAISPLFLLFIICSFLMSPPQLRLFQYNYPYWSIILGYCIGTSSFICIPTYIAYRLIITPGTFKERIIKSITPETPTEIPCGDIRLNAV

Q: Which Ki [1] does the source give for `CC(C)(C)OC(=O)N1CCC2(CCN(c3ccccc3)C2)C1` (stereo not shown) [6a, tert-Butyl-7-phenyl-2,7-diazaspiro[4.4]nonane-2-carboxylate] here?
A: 0.0761 ± 0.0012 µM

Q: And the Ki [2]?
A: 0.0407 ± 0.00095 µM

Q: Which “response latency to mechanical stimulation” value [3] does the source give for `c1ccc(CCN2CCC3(CCN(c4ccccc4)C3)C2)cc1` (stereo not shown) [8a, 2-Phenethyl-7-phenyl-2,7-diazaspiro[4.4]nonane] here?
A: 30.28 ± 5.02 s

Q: What about the “antiallodynic effect on capsaicin-induced allodynia (in words)” value (shortened to “antiallodynic effect … (in words)”) ([3]; s.c.) of the same compound?
A: dose-dependent antiallodynic effects

Q: And the “dose of maximum antiallodynic effect” value ([3]; s.c.)?
A: 20 mg/kg

Q: And the “HCE cells cytotoxicity (LDH release)” value [4]?
A: 16%

Q: And the “HCE cells cell viability reduction (MTT)” value [5]?
A: 50%

Q: For `O=[N+]([O-])c1ccc(N2CCC3(CCN(CCc4ccccc4)C3)C2)cc1` (stereo not shown) [9a, 2-(4-Nitrophenyl)-7-phenethyl-2,7-diazaspiro[4.4]nonane], which “dose from which significant antiallodynic effects are seen” value ([3]; s.c.) is on record?
A: 5 mg/kg

Q: What about the “antiallodynic effect … (in words)” value ([3]; s.c.) of the same compound?
A: dose-dependent and full reversal of capsaicin-induced allodynia

Q: What about the “dose of maximum antiallodynic effect” value ([3]; s.c.) of the same compound?
A: 10 mg/kg

Q: And the “HCE cells cytotoxicity (LDH release)” value [4]?
A: 23%

Q: What does the source list for `N#Cc1ccc(N2CCC3(CCN(CCc4ccccc4)C3)C2)cc1` (stereo not shown) [9d, 4-(7-Phenethyl-2,7-diazaspiro[4.4]nonan-2-yl)benzonitrile]?
A: half-life [6]: > 24 h; S1R functional profile [7]: antagonist; latency to fall from the rotarod (in words) [8]: no change in the latency to fall; solubility at 24 h [9]: 710 µg/mL and 2140 µM; microsomal CLint at 1 h, 0.1 µM ([10]; 1 h incubation): 127 µL/min/mg; half-life at 1 h, 0.1 µM ([10]; 1 h incubation, read-out: human liver microsomes T1/2): 0.917 h; half-life at 0.1 μM ([10]; read-out: human liver microsomes metabolic half-time (T1/2) (converted)): ~1 h; effect of PRE-084 on the antiallodynic effect of the compound ([3]; PRE-084 32 mg/kg s.c. given 5 min before the compound at its dose of maximum effect): fully reversed; antiallodynic effect on capsaicin-induced allodynia (in words) ([3]; s.c.): dose-dependent and full reversal of capsaicin-induced allodynia; IC50 [11]: 0.085 µM; HCE cells cytotoxicity (LDH release) [4]: 18%; microsomal CLint at 1 h, 0.1 µM ([12]; 1 h incubation): 124 µL/min/mg; half-life at 1 h, 0.1 µM ([12]; 1 h incubation, read-out: mouse liver microsomes T1/2): 0.933 h; half-life at 0.1 μM ([12]; read-out: mouse liver microsomes metabolic half-time (T1/2) (converted)): ~1 h; inhibition at 1 µM [13]: < 50%; 5-HT2A % inhibition ([13]; at 1 μM): 42%; half-life [14]: > 24 h; inhibition at 1 µM [15]: < 50%; SERT % inhibition ([15]; at 1 μM): 39%; HCE cells cell viability reduction (MTT) [5]: 28%

Q: Which results are given for `c1ccc(CCN2CCC3(CCN(CCc4ccccc4)C3)C2)cc1` [14a, 2,7-Diphenethyl-2,7-diazaspiro[4.4]nonane]?
A: response latency to mechanical stimulation [3]: 26.55 ± 3.55 s; antiallodynic effect on capsaicin-induced allodynia (in words) ([3]; s.c.): dose-dependent antiallodynic effects; dose of maximum antiallodynic effect ([3]; s.c.): 20 mg/kg; HCE cells cytotoxicity (LDH release) [4]: 13%; HCE cells cell viability reduction (MTT) [5]: 56%

Q: With `O=C(Cc1ccc(Cl)c(Cl)c1)N1CCC2(CCN(CCc3ccccc3)C2)C1` (stereo not shown) [15a, 2-(3,4-Dichlorophenyl)-1-(7-phenethyl-2,7-diazaspiro[4.4]nonan-2-yl)ethan-1-one] as the compound, how does the “antiallodynic effect … (in words)” value ([3]; s.c.) read?
A: dose-dependent and full antiallodynic effect

Q: And the “dose of maximum antiallodynic effect” value ([3]; s.c.)?
A: 40 mg/kg

Q: What about the Ki [2] of the same compound?
A: 0.0075 ± 0.001 µM

Q: With `CN1CCN(CCc2ccc(Cl)c(Cl)c2)CC1` [BD1063, 1-[2-(3,4-dichlorophenyl)ethyl]-4-methylpiperazine dihydrochloride, reference compound] as the compound, how does the Ki [2] read?
A: 0.014 ± 0.0027 µM

Q: Which “HCE cells cell viability reduction (MTT)” value [5] does the source give for `Cl.O=C(OCCN1CCOCC1)C1(c2ccccc2)CCCCC1` [PRE-084, reference compound] here?
A: 58%

Q: And the “concentration above which cell viability is statistically significantly reduced (MTT)” value ([5]; HCE cells)?
A: above 20 μM

Q: With `CC(C)C[C@H](CN)CC(=O)O` [pregabalin, reference compound] as the compound, how does the “latency to fall from the rotarod (in words)” value [8] read?
A: markedly reduced rotarod latencies
